“Also recorded” adds a separate entry of the source.
Columns and labels:
[1] = test system: PBMCs; experiment: T-cell activation assay (IL-2 production in PBMCs, NECA-suppressed, anti-CD3/anti-CD28); type: cell-based; conditions: 10, 100, 1000 nM antagonist with 1000 nM NECA; ELISA after 48 h; Figure 3
Protocol: The effector functions of T cells that express A2 ARs can be evaluated by measuring specific cytokine production[4]^,[9]^,[38]. In this study, the efficiencies of selected antagonists on IL-2 production (T cell activation) were examined. […] However, when the antagonist was added, the concentration of IL-2 was restored, indicating the inhibition effect of NECA was blocked.
Figure 3. The efficiencies of selected compounds for IL-2 production. The efficiencies of selected antagonists on T-cell activation at 10 nM, 100 nM, and 1000 nM were tested in the presence or absence of 1000 nM NECA. The DMSO control was tested in the absence of both antagonists and NECA. The NECA control was tested without antagonists in the presence of 1000 nM NECA.
Cryopreserved PBMCs (Allcells) were thawed and recovered in RPMI1640 medium overnight before being used. And compounds to be tested were diluted with DMSO to 100 folds of working concentrations. Then PBMCs were added to 96-well U bottom plate (2.5 × 10^5 cells per well). To the cells, 2 μl of NECA and 2 μl of each diluted compound (a final concentration of DMSO is 2%) were added. Then, cells were incubated at 37 °C under 5% CO2 for 1 h. Add 100 μl anti-CD3 (2 μg/ml) and anti-CD28 antibody (2 μg/ml) to each well and cells were cultured for 48 h. After 48 h, supernatants were collected and IL-2 concentration was detected by ELISA.

[2] = Metabolic stability in human liver microsomes; type: in vitro ADME
Protocol: (§1) The metabolic stability is an important focus for further compound optimisation. Compounds 7f, 7i, and AB928 were chosen to evaluate the stability in rat liver microsomes and human liver microsomes. For the microsomal metabolic experiment, 7-ethoxycoumarin (7-EC) was used as a control. As shown in Table 4 (see Supporting information for raw data), the CLint(liver) of 7-EC in rats and humans was 10.0 and 9.0 ml/min/g liver, respectively, indicating the experimental test system was reliable.
(§2) Metabolic stabilities of compounds 7f, 7i, and AB928 in liver microsomes were studied with pooled human (male) liver microsomes solution (20 mg/ml) and male Sprague–Dawley rats pooled liver microsomes solution (20 mg/ml) purchased from Research Institute for Liver Diseases (Shanghai) Co. Ltd. Both liver microsomes solutions (140 μl) were diluted by 3948 μl of water and 280 μl of phosphate buffered saline. The assay procedure: 640 μl of diluted liver microsomes solution was added to a solution of compound working solution (16 μl, 25 μM in DMSO) and the mixed solution was incubated at 37 °C for 5 min. Then 160 μl of NADPH generating system was added and take out 100 μl from the mixed solution was added 200 μl of acetonitrile solution to stop the reaction at the set incubation time (0 min, 10 min, 20 min, 30 min, 40 min, 50 min, and 60 min). All stopped reaction solutions were vortex mixed (3 min) and centrifuged (10,000 rpm, 4 °C for 10 min). Then 50 μl of the supernatant was analysed by UPLC-MS/MS system (details of the analytical method see Supporting information). […]
(§3) 8. Metabolic stability in human and rat liver microsomes
(§4) Metabolic stabilities of compounds 7f, 7i and AB928 in liver microsomes were studied with pooled human (male) liver microsomes solution (20 mg/mL) and male Sprague - Dawley rats pooled liver microsomes solution (20 mg/mL) purchased from Research Institute for Liver Diseases (Shanghai) Co. Ltd. Both liver microsomes solutions (140 μL) were diluted by 3948 μL of water and 280 μL of phosphate buffered saline. The assay procedure: 640 μL of diluted liver microsomes solution was added to a solution of compound working solution (16 μL, 25 μM in DMSO) and the mixed solution was […]
(§5) (1 picture or pasted object on this page, not shown here) […]
(§6) incubated at 37 ℃ for 5 min. Then 160 μL of NADPH generating system was added and take out 100 μL from the mixed solution was added 200 μL of acetonitrile solution to stop the reaction at the set incubation time (0 min, 10 min, 20 min, 30 min, 40 min, 50 min, and 60 min). All stopped reaction solutions were vortex mixed (3 min) and centrifuged (10000 rpm, 4 ℃ for 10 min). Then 50 μL of the supernatant was analyzed […]
(§7) 8.2 Chromatography and mass spectrometry conditions
(§8) UPLC was performed using an […] UPLC system (Waters, Milford, MA, […]
(§9) USA). Separation was achieved on a Waters BEH C18 column(100 mm × 2.1 mm， 1.7 μm) at 40 ℃. The injection volume of the sample solution was 5 μL. The mobile phase consisted of water (0.1% formic acid and ammonium acetate) and acetonitrile solution (20:80, v/v) at a flow rate of 0.4 mL/min within a running time of 6 min. Mass spectrometric analysis was performed on a Waters Xevo TQ-S triple quadrupole instrument using electrospray ionization in positive mode. Quantification was performed using multiple reaction monitoring (MRM) mode to monitor precursor-product ion transitions (Table S1).
(§10) Table S1. Conditions of MRM Detection. […]
(§11) Table S2. Raw data of metabolic stability in human and rat liver microsomes. […]
(§12) (min) Hum Rat Hum Rat Hum Rat Hum Rat
(§13) 9. Analytical method of pharmacokinetics assay
(§14) Animal experiments were performed according to the institutional ethical guidelines on animal care and approved by the Institute Animal Care and Use Committee at Binzhou […]
(§15) Female Bal b/c mice (sourced from Jinan Pengyue Experimental Animal Breeding […]

[3] = Metabolic stability in rat liver microsomes; type: in vitro ADME, Sprague–Dawley rats; conditions: for remaining at 10 min, 0.49 µM / remaining at 20 min, 0.49 µM / remaining at 0.5 h, 0.49 µM / remaining at 40 min, 0.49 µM / remaining at 50 min, 0.49 µM / remaining at 1 h, 0.49 µM / half-life at 0.49 µM: male, Sprague-Dawley, pooled rat liver microsomes; for remaining at 10 min, 0.49 µM / remaining at 20 min, 0.49 µM / remaining at 0.5 h, 0.49 µM / remaining at 40 min, 0.49 µM / remaining at 50 min, 0.49 µM / remaining at 1 h, 0.49 µM / CLint(liver) Rat: rat liver microsomes; for remaining at 0.5 h, 0.49 µM: 30 min; for remaining at 1 h, 0.49 µM: 60 min, read-out: Remaining (%, T = 60min) Rat; for half-life at 0.49 µM: rat, read-out: T1/2 Rat
Protocol: as §1, §2, §3, §4, §5, §6, §7, §8, §9, §10, §11, §12, §13, §14, §15

remaining at 10 min, 0.49 µM ([2]; male, human, microsomes) [%]	remaining at 20 min, 0.49 µM ([2]; male, human, microsomes) [%]	remaining at 0.5 h, 0.49 µM ([2]; male, human, microsomes) [%]	remaining at 40 min, 0.49 µM ([2]; male, human, microsomes) [%]	remaining at 50 min, 0.49 µM ([2]; male, human, microsomes) [%]	remaining at 1 h, 0.49 µM ([2]; male, human, microsomes) [%]	remaining at 10 min, 0.49 µM [3] [%]	remaining at 20 min, 0.49 µM [3] [%]	remaining at 0.5 h, 0.49 µM [3] [%]	remaining at 40 min, 0.49 µM [3] [%]	remaining at 50 min, 0.49 µM [3] [%]	remaining at 1 h, 0.49 µM [3] [%]	half-life at 0.49 µM [3] [h]	CLint(liver) Rat [3] [mL/min/g]	CLint(liver) Hum ([2]; human, microsomes) [mL/min/g]	half-life at 0.49 µM ([2]; male, human, microsomes) [h]	Structure (SMILES)	IL-2 production (T cell activation) [1]	metabolism on human liver microsomes (in words) [2]
96.3	96.5	107	98.4	102	105	84.7	88	77.2	73.7	64.2	64	1.56	0.78			Cc1c(C#N)cccc1-c1cc(-c2cn(Cc3cccc(C#N)n3)nn2)nc(N)n1 [Compound 7f, 6-((4-(2-Amino-6-(3-cyano-2-methylphenyl)pyrimidin-4-yl)-1H-1,2,3-triazol-1-yl)methyl)picolinonitrile]	sufficient activities to stimulate IL-2 production	hardly metabolised on human liver microsomes
98	108	116	101	95	98.8	74.9	72.8	67.8	61	53.8	50.7	1.12	1.08	0.06	19.2	Cc1c(C#N)cccc1-c1cc(-c2cn(Cc3cccc(C(N)=O)n3)nn2)nc(N)n1 [Compound 7i, 6-((4-(2-Amino-6-(3-cyano-2-methylphenyl)pyrimidin-4-yl)-1H-1,2,3-triazol-1-yl)methyl)picolinamide]	sufficient activities to stimulate IL-2 production; also recorded: better activity than AB928	hardly metabolised on human liver microsomes

Reference: PMC9154793, “Design, synthesis, and biological evaluation of triazole-pyrimidine-methylbenzonitrile derivatives as dual A2A/A2B adenosine receptor antagonists” (Journal of Enzyme Inhibition and Medicinal Chemistry, 2022)
